Calls of active or inactive are those of the source.

The target in assay [1] is T1, Aminopeptidase N (Plasmodium falciparum FcB1/Columbia, UniProt O96935).
T1 sequence (O96935 whole entry): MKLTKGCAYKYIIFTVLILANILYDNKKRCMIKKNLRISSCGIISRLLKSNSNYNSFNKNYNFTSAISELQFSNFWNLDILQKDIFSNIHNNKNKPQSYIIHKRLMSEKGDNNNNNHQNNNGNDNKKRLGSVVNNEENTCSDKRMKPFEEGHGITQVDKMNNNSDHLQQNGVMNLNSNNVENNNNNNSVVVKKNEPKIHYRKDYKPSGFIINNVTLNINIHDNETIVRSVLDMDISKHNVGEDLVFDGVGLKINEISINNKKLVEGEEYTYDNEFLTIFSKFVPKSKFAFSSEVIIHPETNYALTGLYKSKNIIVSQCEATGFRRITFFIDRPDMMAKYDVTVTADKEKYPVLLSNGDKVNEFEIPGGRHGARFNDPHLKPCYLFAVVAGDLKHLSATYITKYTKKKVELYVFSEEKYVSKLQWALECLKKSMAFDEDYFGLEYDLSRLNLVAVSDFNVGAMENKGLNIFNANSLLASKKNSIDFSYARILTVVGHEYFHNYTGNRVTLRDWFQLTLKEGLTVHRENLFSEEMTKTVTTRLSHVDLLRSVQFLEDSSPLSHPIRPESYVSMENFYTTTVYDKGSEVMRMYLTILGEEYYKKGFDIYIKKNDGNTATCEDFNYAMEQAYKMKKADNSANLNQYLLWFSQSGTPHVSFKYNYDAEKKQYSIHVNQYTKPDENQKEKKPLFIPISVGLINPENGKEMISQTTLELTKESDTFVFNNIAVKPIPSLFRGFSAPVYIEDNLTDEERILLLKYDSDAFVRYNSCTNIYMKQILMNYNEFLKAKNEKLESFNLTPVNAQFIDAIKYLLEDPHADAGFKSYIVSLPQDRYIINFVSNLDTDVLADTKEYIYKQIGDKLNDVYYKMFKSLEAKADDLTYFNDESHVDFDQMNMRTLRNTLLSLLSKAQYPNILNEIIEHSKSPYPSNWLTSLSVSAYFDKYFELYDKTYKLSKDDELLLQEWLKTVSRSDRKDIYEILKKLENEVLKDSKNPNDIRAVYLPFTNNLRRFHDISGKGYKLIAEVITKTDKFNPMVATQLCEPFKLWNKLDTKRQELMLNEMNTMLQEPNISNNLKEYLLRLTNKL
Briefly: malaria alanyl aminopeptidase activity blockers – biochemical, fluorogenic H-Leu-NHMec substrate, 1536-well (AID 1445). Further details: species or system Plasmodium falciparum 3D7, 3D7.

Assay [2] concerns the target T2, Voltage-gated inwardly rectifying potassium channel KCNH2 (Homo sapiens, UniProt Q12809). Kind of assay: dose-dependent reversal of dofetilide hERG block – manual patch clamp, HEK293 cells, dose response (AID 2638). Type of assay: ADME.
Assay [3] addresses T2, Voltage-gated inwardly rectifying potassium channel KCNH2. Briefly: concentration-dependent hERG rescue from blockers – cell-based, thallium flux, dose response (AID 2121). Type of assay: ADME. A general note: Block of hERG is tested as a sign of cardiac risk.
Assay [4] can be described thus: Luminescent dose response cell-based high throughput screening assay for inhibitors of the Janus kinase 2 mutant JAK2V617F. [Related pubchem assays: 1446 (Primary screen.), 1521 (Confirmation assay.), 1486 (Counter screen.)]. The format is functional.
A short description of assay [5]: NIH-3T3 fibroblast cytotoxicity, dose response, cytotoxicity control, cell-based, fluorescence, Alamar Blue, secondary assay (AID 2327).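 Further: NIH-3T3 mouse fibroblasts cultured with fluconazole at 8 µg/mL.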 Type of assay: functional. (In general: Resazurin is reduced to fluorescent resorufin, in cell work by metabolically active cells.)
Assay [6] is described as follows: fluconazole-exposed Candida albicans growth modulators – fluorescence, retest, confirmation (AID 2467). The format is functional, cell-based.
Assay [7] concerns the target G-protein coupled receptor 55 (Homo sapiens, UniProt Q9Y2T6). Kind of assay: inhibition of LPI-stimulated GPR55 beta-arrestin translocation – imaging, U2OS, beta-arrestin-GFP, LPI agonist, primary screen (AID 2013).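 Further: antagonist potency measured as reduced agonist-driven arrestin aggregation.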 Type of assay: functional.
The nature of assay [8]: Trypanosoma cruzi growth suppression in host cells – NIH3T3 host cells, beta-gal luminescence, confirmation (AID 2044).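 Further: intracellular parasites grown in NIH/3T3 mouse fibroblasts as host cells; luminescent beta-galactosidase reporter signal from transgenic T. cruzi replicating inside host cells; inhibitors lower the luminescence signal.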 The format is functional, cell-based.
Assay [9] is described as follows: NIH3T3 cell viability loss – ATP luminescence, mouse fibroblasts, counter-screen, dose response (AID 2010).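 Further: cells exposed to compound for about 90 hours before reading.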 Type of assay: functional, cell-based. For orientation: The purpose of a counterscreen is to sort out artefacts and off-target activity.
In assay [10] the target is Bifunctional protein GlmU (Mycobacterium tuberculosis, UniProt P9WMN3). Briefly: Inhibitors of Mycobacterial Glucosamine-1-phosphate acetyl transferase (GlmU). Secondary screen. Further details: species or system Mycobacterium tuberculosis H37Rv.
Sequence of Bifunctional protein GlmU (P9WMN3 whole entry, the tested form may be a part): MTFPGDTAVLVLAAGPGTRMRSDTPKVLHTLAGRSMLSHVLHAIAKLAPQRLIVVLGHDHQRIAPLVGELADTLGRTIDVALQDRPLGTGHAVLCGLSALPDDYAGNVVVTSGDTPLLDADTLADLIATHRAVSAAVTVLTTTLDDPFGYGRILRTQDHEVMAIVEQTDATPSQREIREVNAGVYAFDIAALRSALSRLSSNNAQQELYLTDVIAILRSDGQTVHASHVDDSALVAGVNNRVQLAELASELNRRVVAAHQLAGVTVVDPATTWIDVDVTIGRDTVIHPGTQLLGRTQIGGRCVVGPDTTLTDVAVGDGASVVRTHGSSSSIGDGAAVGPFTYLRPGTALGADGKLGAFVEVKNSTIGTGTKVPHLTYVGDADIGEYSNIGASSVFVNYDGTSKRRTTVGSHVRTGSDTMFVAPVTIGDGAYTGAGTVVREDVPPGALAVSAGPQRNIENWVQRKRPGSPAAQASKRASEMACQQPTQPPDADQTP
For assay [11], the system named is CHO. Kind of assay: CHO cell viability loss, potency – luminescence, cytotoxicity control for TLR9-MyD88 binding inhibitor project, dose response (AID 588339).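 Further: CHO cells stably coexpressing TLR9 and MyD88 fusions from primary screen; compound exposure lasted 48 hours before viability readout.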 Type of assay: functional, cell-based, hamster. As to conditions: Cricetulus griseus.
For assay [12], the target named is T3, Replicative DNA helicase DnaB (Mycobacterium tuberculosis, UniProt P9WMR3).
T3 sequence (P9WMR3 whole entry): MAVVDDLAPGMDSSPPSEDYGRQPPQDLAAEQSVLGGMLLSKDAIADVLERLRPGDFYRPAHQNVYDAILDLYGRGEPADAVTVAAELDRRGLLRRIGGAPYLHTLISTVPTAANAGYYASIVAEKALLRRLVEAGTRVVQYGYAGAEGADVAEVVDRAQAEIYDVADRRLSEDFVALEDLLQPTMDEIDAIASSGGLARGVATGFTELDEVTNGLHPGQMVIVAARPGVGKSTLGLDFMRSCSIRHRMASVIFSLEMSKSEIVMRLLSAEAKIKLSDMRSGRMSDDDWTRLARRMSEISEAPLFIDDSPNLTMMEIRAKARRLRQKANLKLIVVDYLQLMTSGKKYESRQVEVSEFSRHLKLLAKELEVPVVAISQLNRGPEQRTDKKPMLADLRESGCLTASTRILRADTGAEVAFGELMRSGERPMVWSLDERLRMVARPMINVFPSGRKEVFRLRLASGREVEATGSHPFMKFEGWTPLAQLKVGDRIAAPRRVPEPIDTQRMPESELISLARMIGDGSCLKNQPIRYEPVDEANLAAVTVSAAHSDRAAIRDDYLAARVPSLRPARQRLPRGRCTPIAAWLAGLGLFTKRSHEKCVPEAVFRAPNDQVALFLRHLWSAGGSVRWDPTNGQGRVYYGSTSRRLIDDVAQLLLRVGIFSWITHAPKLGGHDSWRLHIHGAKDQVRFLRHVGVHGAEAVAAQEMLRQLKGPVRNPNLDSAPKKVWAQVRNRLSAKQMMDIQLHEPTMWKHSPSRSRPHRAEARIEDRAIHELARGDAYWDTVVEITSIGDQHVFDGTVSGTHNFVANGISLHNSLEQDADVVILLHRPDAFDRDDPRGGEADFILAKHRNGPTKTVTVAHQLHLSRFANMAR
Kind of assay: DnaB intein splicing inhibitors, dose response, biochemical, cell-free fluorescence (AID 449749). The format is functional.

In assay [13] the target is T4, Protein RecA (Mycobacterium tuberculosis, UniProt P9WHJ3).
T4 sequence (P9WHJ3 whole entry): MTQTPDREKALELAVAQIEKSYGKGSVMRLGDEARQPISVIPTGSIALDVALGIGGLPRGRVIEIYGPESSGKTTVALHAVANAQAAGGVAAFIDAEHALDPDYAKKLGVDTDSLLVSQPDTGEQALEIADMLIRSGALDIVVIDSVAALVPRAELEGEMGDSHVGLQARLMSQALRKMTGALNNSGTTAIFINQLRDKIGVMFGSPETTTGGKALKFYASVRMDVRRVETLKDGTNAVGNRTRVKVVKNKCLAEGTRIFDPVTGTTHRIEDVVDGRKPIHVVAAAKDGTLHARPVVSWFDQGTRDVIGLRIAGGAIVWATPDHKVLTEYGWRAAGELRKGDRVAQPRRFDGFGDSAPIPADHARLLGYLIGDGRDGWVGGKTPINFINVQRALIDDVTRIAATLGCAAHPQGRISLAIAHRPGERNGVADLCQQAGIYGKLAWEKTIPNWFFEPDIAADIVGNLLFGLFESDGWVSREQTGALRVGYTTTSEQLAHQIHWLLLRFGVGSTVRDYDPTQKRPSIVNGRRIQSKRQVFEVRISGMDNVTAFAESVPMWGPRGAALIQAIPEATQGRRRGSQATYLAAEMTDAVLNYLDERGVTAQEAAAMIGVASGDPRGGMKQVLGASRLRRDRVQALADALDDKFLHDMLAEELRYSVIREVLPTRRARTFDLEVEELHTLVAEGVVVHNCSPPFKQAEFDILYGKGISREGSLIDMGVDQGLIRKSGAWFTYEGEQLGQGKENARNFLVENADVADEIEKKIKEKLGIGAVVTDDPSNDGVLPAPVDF
Briefly: Fluorescence Cell-Free Homogeneous Dose Retest to Identify Inhibitors of RecA-Intein Splicing Activity. [Related pubchem assays (depositor defined):AID2097, AID2223, AID489010, AID492950]. The format is functional.

Assay [14] has as its target Beta Lactamase (Pseudomonas aeruginosa, UniProt Q932Y6). Kind of assay: BLA reporter interference, concentration series – BLA reporter cells, FRET fluorescence, artefact control for TLR9-MyD88 binding inhibitor project, dose response (AID 588341).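 Further: cell based assay in CHO-K1 cells stably expressing beta-lactamase.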 The format is cell-based.
Assay [15] is described as follows: reduction of Shn3 3'UTR-driven luciferase in osteoblasts – cell-based, Clone20 osteoblasts, firefly luciferase, cherry-picked, dose response (AID 624132).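 Further: firefly luciferase luminescence from reporter carrying the Shn3 3'UTR in osteoblasts.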 The format is functional.
A short description of assay [16]: non-specific 3'UTR reporter inhibition in Clone20-Shn3RL – cell-based, Renilla luciferase, cherry-picked, counter-screen for Shn3 inhibitor project, dose response (AID 624133). The format is functional.
A short description of assay [17]: A549 cell cytotoxicity, dose response, cytotoxicity control, plate reader, cherry-pick, antagonist series (AID 743412). Type of assay: functional, cell-based.
Assay [18] is described as follows: toxicity toward HepG2 liver cells – cell-based, plate reader, cherry-pick, antagonist series, cytotoxicity control, dose response (AID 743416). Type of assay: functional.
A short description of assay [19]: blockers of bursicon-stimulated LGR2 cAMP reporter – cell-based, HEK293, CRE-luciferase reporter, cherry pick, set 2, dose response (AID 743343).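 Further: transfected cells were stimulated with diluted bursicon conditioned medium after compound addition.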 The format is functional.
Assay [20] is described as follows: blockade of melanocortin 4 receptor signaling – cell-based, plate reader, cherry pick, counter-screen for LGR2 antagonist project, dose response (AID 743444).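 Further: transfected HEK 293 cells stimulated with alpha-MSH peptide; potency of inhibitors of the alpha-MSH evoked signal.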 The format is functional.
Assay [21] is described as follows: viability loss in HEK293 cells – cell-based, plate reader, cherry-picked samples, cytotoxicity control, dose response (AID 743446). Type of assay: functional.

T2 sequence (Q12809 whole entry): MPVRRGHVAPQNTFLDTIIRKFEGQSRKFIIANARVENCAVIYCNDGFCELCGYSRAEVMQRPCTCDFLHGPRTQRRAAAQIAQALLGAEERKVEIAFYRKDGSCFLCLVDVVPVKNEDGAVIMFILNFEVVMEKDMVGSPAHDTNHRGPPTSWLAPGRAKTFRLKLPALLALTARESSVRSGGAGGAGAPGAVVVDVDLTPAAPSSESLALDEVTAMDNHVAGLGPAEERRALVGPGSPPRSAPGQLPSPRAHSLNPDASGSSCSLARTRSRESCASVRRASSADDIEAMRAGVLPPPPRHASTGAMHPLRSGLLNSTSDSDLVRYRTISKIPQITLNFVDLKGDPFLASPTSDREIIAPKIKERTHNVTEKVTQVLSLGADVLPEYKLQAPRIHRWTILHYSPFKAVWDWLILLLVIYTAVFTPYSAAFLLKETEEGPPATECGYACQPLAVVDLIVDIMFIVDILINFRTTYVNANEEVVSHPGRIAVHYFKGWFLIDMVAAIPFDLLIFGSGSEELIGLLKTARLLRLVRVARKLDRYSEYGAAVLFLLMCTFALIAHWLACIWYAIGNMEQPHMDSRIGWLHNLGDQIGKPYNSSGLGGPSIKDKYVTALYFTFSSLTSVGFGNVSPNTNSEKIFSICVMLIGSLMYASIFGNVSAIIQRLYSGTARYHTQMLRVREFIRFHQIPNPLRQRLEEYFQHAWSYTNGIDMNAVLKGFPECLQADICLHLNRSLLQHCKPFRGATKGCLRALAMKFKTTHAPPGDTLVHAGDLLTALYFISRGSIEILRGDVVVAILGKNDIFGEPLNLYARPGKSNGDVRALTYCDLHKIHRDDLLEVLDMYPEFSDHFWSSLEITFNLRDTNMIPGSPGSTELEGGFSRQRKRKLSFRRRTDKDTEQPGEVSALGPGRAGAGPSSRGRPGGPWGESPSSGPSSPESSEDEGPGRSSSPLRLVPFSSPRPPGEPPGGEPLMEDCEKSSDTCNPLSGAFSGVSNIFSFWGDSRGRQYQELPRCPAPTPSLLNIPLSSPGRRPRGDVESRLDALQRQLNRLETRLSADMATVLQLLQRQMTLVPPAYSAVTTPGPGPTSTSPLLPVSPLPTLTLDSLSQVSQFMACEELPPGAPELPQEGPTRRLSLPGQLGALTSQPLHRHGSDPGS
Sequence of G-protein coupled receptor 55 (Q9Y2T6 whole entry): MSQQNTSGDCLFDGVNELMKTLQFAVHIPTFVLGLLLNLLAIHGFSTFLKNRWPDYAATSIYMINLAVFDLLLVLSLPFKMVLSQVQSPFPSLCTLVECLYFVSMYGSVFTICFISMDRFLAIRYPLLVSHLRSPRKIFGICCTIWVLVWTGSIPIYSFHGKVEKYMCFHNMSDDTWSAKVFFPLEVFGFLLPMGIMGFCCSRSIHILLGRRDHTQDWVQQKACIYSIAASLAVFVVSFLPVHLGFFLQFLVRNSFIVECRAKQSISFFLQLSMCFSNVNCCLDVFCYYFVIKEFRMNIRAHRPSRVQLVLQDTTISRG
Sequence of Beta Lactamase (Q932Y6 whole entry): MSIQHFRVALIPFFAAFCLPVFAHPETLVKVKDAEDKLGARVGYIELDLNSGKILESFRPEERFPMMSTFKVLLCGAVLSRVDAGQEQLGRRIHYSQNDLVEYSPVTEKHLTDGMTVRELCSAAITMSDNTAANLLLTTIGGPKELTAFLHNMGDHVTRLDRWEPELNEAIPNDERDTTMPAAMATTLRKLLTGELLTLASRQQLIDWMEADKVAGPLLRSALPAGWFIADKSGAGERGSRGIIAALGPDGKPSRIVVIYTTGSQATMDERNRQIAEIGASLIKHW

By IC50 is commonly meant the midpoint of a concentration-inhibition curve. For orientation: EC50 means the concentration needed to bring the measured effect to its halfway point. As to `CCC1CCCCN1C(=S)NC(=O)c1cccs1` (stereo unspecified), the concentration for half-maximal inhibition (IC50) in assay [1] was 30 µM (active). Also, the figures for the EC50 in [2] and in assay [3] were 5.2 µM (active) and 0.29 µM (active), respectively.
Broadly, the AC50 is the midpoint of the concentration-response curve, whichever way the signal moves. In the case of `CNC(=O)c1nnsc1[S+]([O-])c1ccc(Cl)cc1` (stereo unspecified), the concentration for half-maximal inhibition (IC50) is 0.707 µM (active) in assay [4]; 2.73 µM (active) in assay [7]; 108 µM (active) in assay [10]; 2.23 µM (active) in assay [11]; 19.6 µM (inactive) in assay [14]. Besides, the EC50 was 5.05 µM (inconclusive) in assay [5]; 2.07 µM (active) in assay [6]; 0.977 µM (active) in assay [8]; 1.9 µM (active) in assay [9]; 21 µM (active) in [13]. Also, the concentration at half-maximal activity (AC50) in assay [12] is 41.2 µM (active); in assay [15], 2.02 µM (active); in assay [16] it was 6.49 µM (active); in assay [17] it was 11.5 µM (active); in assay [18], 9.72 µM (active); in [19], 2.58 µM (active). Besides, the AC50 in [20] is 2.49 µM (active); in [21], 12 µM (active).

These data come from ChEMBL document CHEMBL1201862, “PubChem BioAssay data set” (2004).
